Assay: isoelectric point (pI) of the GLP-1 analogue
Format: physicochemical
Conditions: isoelectric point of the peptide, stated in the description

pI: about 5.4
Substance: Arg^34GLP-1(7-37)

Reference: US6844321B2, “Crystallization of a GLP-1 analogue” (Novo Nordisk A/S, priority 2000, dated 2005)
